Results from patent US20090209606A1 (priority 2004, published 2009).
Read-outs that look alike come from different tables or passages of the source. Residues, ends and D or L forms follow the SMILES beside them. *: point of attachment. Cbz = O=C(OCc1ccccc1)*; CH2F = FC*

Key:
SU-DHL-1 cells [1] = format: cell-based
gamma-H2AX histone = assay: H2AX foci formation (immunofluorescence); conditions: 50 μM
Procedure: Cell were grown on Lab-Tek chamber slides (Nalge Nunc Intl., Naperville, Ill.) in RPMI 1640 media supplemented with 10% FBS. […] The cells were incubated for 30 minutes at 37° C. and then washed two times with PBS. They were incubated for an additional 4 hours at 37° C. The cells were then washed twice with 1×PBS and incubated 10 minutes in −20° C. 100% methanol to fix the cells. They were then washed three times for five minutes each with 1×PBS. They were incubated at room temperature for 1 hour in blocking buffer (10% FBS in 1×PBS, 1% BSA). The slides were incubated at 4° C. with rocking overnight with the primary polyclonal anti-H2AX antibody (R & D Systems, Minneapolis, Minn.). The antibody was diluted in blocking buffer at a ratio of 1:10,000. Slides were washed three times with 1×PBS and incubated with Alexa Flour 488 goat anti-rabbit secondary antibody (1:4000) (Molecular Probes, Eugene, Oreg.) for 45 minutes at room temperature with gentle shaking. Slides were washed three times with 1×PBS and then the chambers removed and SlowFade Light Antifade with DAPI (Molecular Probes) was added to the cells and coverslips sealed on the slides. Analysis was performed using a motorized Zeiss AxioPlan 2e imaging microscope with DIC optics and fluorescence, a Zeiss AxioCam HRm camera and Zeiss Axiovision software Version 4.2.

[2] = test system: MCF-7/ADR cells and p53 deficient RK0-E6 colon adenocarcinoma cells; format: cell-based
PARP in SU-DHL-1 cells = format: cell-based
[3] = test system: alkylguanyl transferase (AGT) in SU-DHL-1 cells
SU-DHL-1 cells [4] = format: cell-based; remark: listed apart in the source
SU-DHL-1 cells [5] = assay: Cell cycle analysis (propidium iodide, FACS); conditions: SU-DHL-1, eight hours, equitoxic concentrations (bendamustine 50 μM)
SU-DHL-1 cells [6] = format: cell-based; remark: listed apart in the source
[7] = test system: Ape-1 base excision repair enzyme; format: cell-based
[8] = test system: relapsed indolent or transformed rituximab-refractory B-cell NHL; assay: Phase II multicenter trial; format: in vivo, human
From the text: This study evaluated the efficacy and toxicity of bendamustine in patients with NHL who have relapsed or are refractory to previous chemotherapy regimens. Patients refractory to rituximab had disease progression within 6 months of treatment.
Methods: This Phase II multicenter trial enrolled patients with relapsed indolent or transformed rituximab-refractory B-cell NHL from 17 sites in the US and Canada. […] Median age of patients was 63 years (range: 38-84) and 88% had Stage III/IV disease. Patients received bendamustine 120 mg/m^2 IV over 30-60 minutes, days 1 and 2, every 21 days for up to 6 cycles. Response was measured using the International Working Group criteria.

SU-DHL-1 cells [9] = assay: cells; format: cell-based; conditions: Homo sapiens
[10] = test system: 60 human tumor cell lines
[11] = SU-DHL-1, 72 h, read-out: Ave IC50
[12] = SU-DHL-1, 72 h, read-out: Ave IC90

For `Cl.Cn1c(CCCC(=O)O)nc2cc(N(CCCl)CCCl)ccc21` [Bendamustine, 4-{5-[bis(2-chloroethyl)amino]-1-methyl-2-benzimidazolyl} butyric acid hydrochloride], the “loss of viability after brief exposure and wash-out” value (“loss of viability” for short) (SU-DHL-1 cells [1]) was “extensive loss of viability”, the “time to detectable intranuclear H2AX foci” value (gamma-H2AX histone) was at most 30 min and the “micronucleation (nuclear morphology, DAPI)” value ([2]; 50 μM, alone or with 20 μM zVAD-fmk, two or three days) was “increased incidence of micronucleation”. The PARP cleavage (PARP in SU-DHL-1 cells) was “Maximal PARP cleavage”, the “effect of O6-benzylguanine on cytotoxic potency” value (from here on “effect of O6-benzylguanine”) [3] was “not enhanced” and the PARP protein expression (SU-DHL-1 cells [4]) was “dramatic reduction”. For the same compound, the “expression of total p53” value (SU-DHL-1 cells [4]) was “strong increase”, the “protein expression of Bax” value (SU-DHL-1 cells [4]) was “increase” and the “up-regulation of Ser-15-phosphorylated p53” value (SU-DHL-1 cells [4]) was 8 fold. For the same compound, the S-phase distribution increase (SU-DHL-1 cells [5]) was “over 40%”, the “Fen1 mRNA regulation” value (SU-DHL-1 cells [6]) was “upregulated” and the “PLK-1 and Aurora A kinase (AurkA) expression” value (SU-DHL-1 cells [6]) was “down-regulated”. For the same compound, the “down-regulation of mRNA expression of PLK-1, Aurora Kinases A and B, cyclin B1” value (SU-DHL-1 cells [6]) was 60 to 80%, the “induction of p21 and NOXA mRNA” value (SU-DHL-1 cells [6]) was “induced” and the “up-regulation of Exo1 expression” value (SU-DHL-1 cells [6]) was 2.5 fold. For the same compound, the “change of IC50 with methoxyamine addition” value [7] was “reduced approximately four-fold”, the objective response ([8]; 15 patients refractory to prior alkylator treatment) was 67% and the complete response ([8]; ITT population) was 25%. For the same compound, the disease progression ([8]; ITT population) was 14%, the partial response ([8]; ITT population) was 49% and the stable disease ([8]; ITT population) was 12%. The “overall objective response rate (ORR)” value ([8]; ITT population, 120 mg/m^2 IV days 1 and 2 every 21 days) was 74%, the “median duration of response” value ([8]; all patients) was 6.6 months and the “median duration of response” value ([8]; indolent patients) was 9.3 months. For the same compound, the toxicity ([8]; single agent, heavily pretreated patients) was “acceptable toxicity”, the “median duration of response” value ([8]; transformed patients) was 2.4 months and the IC50 (SU-DHL-1 cells [9]; [11]) was 33.2 µM. The IC90 (SU-DHL-1 cells [9]; [12]) was 56.3 µM and the IC50 (SU-DHL-1 cells [9]; SU-DHL-1, read-out: IC50 concentration) was 25 µM.
For `O=C(O)CCCc1ccc(N(CCCl)CCCl)cc1` [Chlorambucil, chlorambucil], the “loss of viability” value (SU-DHL-1 cells [1]) was “minimal loss of viability”, the PARP cleavage (PARP in SU-DHL-1 cells) was “No PARP cleavage” and the PARP protein expression (SU-DHL-1 cells [4]) was “no changes”. The “expression of total p53” value (SU-DHL-1 cells [4]) was “small increase”, the “up-regulation of Ser-15-phosphorylated p53” value (SU-DHL-1 cells [4]) was “no changes” and the S-phase distribution increase (SU-DHL-1 cells [5]) was “approximately 20%”. The “PLK-1 and Aurora A kinase (AurkA) expression” value (SU-DHL-1 cells [6]) was “No changes”, the “down-regulation of mRNA expression of PLK-1, Aurora Kinases A and B, cyclin B1” value (SU-DHL-1 cells [6]) was “minor effect” and the “induction of p21 and NOXA mRNA” value (SU-DHL-1 cells [6]) was “much lower extent”. For the same compound, the “up-regulation of Exo1 expression” value (SU-DHL-1 cells [6]) was 1.8 fold, the IC50 (SU-DHL-1 cells [9]; [11]) was 3.4 µM and the IC90 (SU-DHL-1 cells [9]; [12]) was 6.2 µM. The IC90 (SU-DHL-1 cells [9]; SU-DHL-1, read-out: IC90 concentration) was 5 µM and the IC50 (SU-DHL-1 cells [9]; SU-DHL-1, read-out: equitoxic (IC50) concentrations) was 4 µM.
For `CN(C)/N=N/c1[nH]cnc1C(N)=O` [DTIC, Dacarbazine, Dacarbazine], the “Correlation (PCC) with bendamustine, LC50” value [10] was 0.792 (LC50).
With `O=NN(CCCl)C(=O)NCCCl` [carmustine] the “effect of O6-benzylguanine” value [3] was “significantly sensitizes”.
For `O=P1(N(CCCl)CCCl)NCCCO1` (centres unmarked) [cyclophosphamide], the “effect of O6-benzylguanine” value [3] was “Opposite results” and the S-phase distribution increase (SU-DHL-1 cells [5]) was about 15%.
With `N[C@@H](Cc1ccc(N(CCCl)CCCl)cc1)C(=O)O` [melphalan] the “loss of viability” value (SU-DHL-1 cells [1]) was “minimal loss of viability” and the PARP cleavage (PARP in SU-DHL-1 cells) was “No PARP cleavage”.
With `COC(=O)C[C@H](NC(=O)[C@H](C)NC(=O)[C@@H](NC(=O)OCc1ccccc1)C(C)C)C(=O)CF` [zVAD-fmk] (Cbz-Val-Ala-Asp(OMe)-CH2F) the “bendamustine-induced increases in Annexin-V-positive cells” value [2] was “able to inhibit”.
